In patent publication US11236129B2, “IL-17A binding peptides and medical uses thereof” (Dompe' Farmaceutici S.P.A., priority 2018, dated 2022):
Where two headings read alike, the source gives them in different places. Residues, ends and D or L forms follow the SMILES beside them.

Key:
[1] = format: physicochemical; conditions: pH 7.8
How it was run: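 Peptides dissolved in phosphate buffer pH 7.8 as 10 mM stocks (more dilute for less soluble ones) and stored at 25 °C. Content measured by reversed-phase UHPLC (C18, 0.5% formic acid water/acetonitrile gradient, DAD 220-400 nm, ESI-MS ion trap) after 1:100 dilution to 100 μM, against 100 μM standards, at T0, 3 days and 1 week.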

[2] = molecular target: IL-17RA/IL17RC dimerization induced by IL-17A (Homo sapiens, UniProt Q16552); assay: IL-17RA/IL17RC dimerization assay in response to IL-17A (PathHunter Cytokine Receptor Assay); format: cell-based; conditions: IL-17A at EC80; read-out: IC50 in IL-17RA/IL7RC dimerization assay
Sequence of IL-17RA/IL17RC dimerization induced by IL-17A (Q16552 24-155): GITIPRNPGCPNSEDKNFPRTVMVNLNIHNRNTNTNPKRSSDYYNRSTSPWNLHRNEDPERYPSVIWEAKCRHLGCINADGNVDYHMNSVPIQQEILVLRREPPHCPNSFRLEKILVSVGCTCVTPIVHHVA
How it was run: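 PathHunter cells with IL-17RA and IL-17RC tagged for β-galactosidase complementation were preincubated 60 min with peptide (1% vehicle). IL-17A was then added at EC80 for 6–16 h at 37 °C, and chemiluminescence was read. Inhibition is relative to the EC80 and vehicle controls.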

[3] = Isoelectric point, log D and log P (SiriusT3); format: physicochemical; conditions: for IP (isoelectric point): 25±1° C., 0.15 M KCl
[4] = Permeability test across stratified human corneal epithelial cells; format: in vitro ADME; conditions: Permeability (Papp)
Experimental: (§1) The objective of this study was to evaluate the apparent permeability coefficient (Papp) value of the peptides across stratified human corneal epithelial cells. All peptides were tested at 50 μM in duplicate.
(§2) In particular, human corneal epithelial cells (hCEPIC) were stratified on Transwell cell culture inserts (Corning, N.Y., USA). The permeation experiments were performed taking samples from receiver chambers at 5, 30, 60 minutes time points and from donor chambers at the same time points. Each aliquot collected was analyzed by HPLC instrument (Knauer) equipped with C18 Vertex Plus Column (Knauer) thermostatically controlled at 40° C. The rate (apparent permeability coefficient, Papp) of the study compounds was calculated and compared to the Papp values of the low and high permeability markers, 6-carboxyfluorescein and Rhodamine B, respectively.
(§3) The apparent permeability coefficient (Papp) was calculated according to Equation: Papp=(I/A*C0)(dM/dt)
(§4) where dM/dt is the flux (nanomoles per second) across the cell layers;
(§5) A (square centimeters) is the exposed surface area of the insert membrane;
(§6) C0 is the initial drug concentration (micromolar) in the donor compartment at t=0 (Xiang et al., Drug Metab Dispos. 2009 May; 37(5):992-8.

[5] = test system: human corneal epithelial cells (hCEPIC); assay: as above; format: in vitro ADME; conditions: for Permeability (Papp): 50 μM, stratified human corneal epithelial cells
Experimental: as §1, §2, §3, §4, §5, §6

[6] = octanol/ISA water, read-out: logP
[7] = pH 7.4, pH 7.4, octanol/ISA water, read-out: Log D (7.4)

| Structure (SMILES) | solubility [1] [µM] | IC50 [2] [nM] | IP (isoelectric point) [3] | logP ([3]; logP) | logD ([3]; pH 7.4, Log D (7.4)) | Papp [4] [×10⁻⁶ cm/s] | logP [3, 6] | logD [3, 7] | Permeability (Papp) [5] | permeability compared to high permeability standard Rhodamine B (in words) [5] |
| --- | --- | --- | --- | --- | --- | --- | --- | --- | --- | --- |
| CC[C@H](C)[C@H](NC(C)=O)C(=O)N[C@@H](Cc1c[nH]cn1)C(=O)N[C@H](C(=O)N[C@H](C(=O)N[C@H](C(=O)N1CCC[C@H]1C(=O)N[C@@H](C)C(=O)N[C@@H](CC(=O)O)C(=O)N[C@@H](CC(C)C)C(=O)N[C@@H](Cc1c[nH]c2ccccc12)C(=O)N[C@@H](CC(=O)O)C(=O)N[C@@H](Cc1c[nH]c2ccccc12)C(=O)N[C@H](C(=O)N[C@@H](CCCNC(=N)N)C(=O)N[C@@H](CCCNC(=N)N)C(N)=O)C(C)C)[C@@H](C)CC)[C@@H](C)O)C(C)C [SEQ ID NO: 14] (Ac-IHVTIPADLWDWVRR-NH2) | > 10000 | < 400 | 8.99 | -5.4 | -2.8 | 28.9 | – | – | – | – |
| O=C(O)c1ccc2c(c1)C1(OC2=O)c2ccc(O)cc2Oc2cc(O)ccc21 [6-carboxyfluorescein, reference compound] | – | – | – | – | – | – | – | – | 0.61±0.33 10^−6 cm/sec | – |
| CC[C@H](C)[C@H](NC(=O)[C@@H](NC(=O)[C@@H](NC(=O)[C@H](Cc1c[nH]cn1)NC(=O)[C@@H](NC(C)=O)C(C)C)C(C)C)[C@@H](C)O)C(=O)N1CCC[C@H]1C(=O)N[C@@H](C)C(=O)N[C@@H](CC(=O)O)C(=O)N[C@@H](CC(C)C)C(=O)N[C@@H](Cc1c[nH]c2ccccc12)C(=O)N[C@@H](CCC(=O)O)C(=O)N[C@@H](Cc1c[nH]c2ccccc12)C(=O)N[C@@H](Cc1ccccc1)C(=O)N[C@@H](CCCNC(=N)N)C(=O)N[C@@H](CCCNC(=N)N)C(N)=O [SEQ ID NO: 121] (Ac-VHVTIPADLWEWFRR-NH2) | < 50 | < 500 | 8.99 | – | – | 47.1 | -0.51 | -1.47 | – | – |
| CC[C@H](C)[C@H](NC(C)=O)C(=O)N[C@@H](Cc1c[nH]cn1)C(=O)N[C@H](C(=O)N[C@H](C(=O)N[C@H](C(=O)N1CCC[C@H]1C(=O)N[C@@H](C)C(=O)N[C@@H](CC(=O)O)C(=O)N[C@@H](CC(C)C)C(=O)N[C@@H](Cc1c[nH]c2ccccc12)C(=O)N[C@@H](CC(=O)O)C(=O)N[C@@H](Cc1c[nH]c2ccccc12)C(=O)N[C@H](C(=O)N[C@@H](CCC(=O)O)C(=O)N[C@@H](CCCCN)C(N)=O)[C@@H](C)CC)[C@@H](C)CC)[C@@H](C)O)C(C)C [SEQ ID NO: 11] (Ac-IHVTIPADLWDWIEK-NH2) | > 10000 | < 400 | 4.25 | 1.05 | -2.92 | 28 | – | – | – | – |
| CCN(CC)c1ccc2c(-c3ccccc3C(=O)O)c3ccc(=[N+](CC)CC)cc-3oc2c1.[Cl-] [Rhodamine B, reference compound] | – | – | – | – | – | – | – | – | 51.26±5.44 10^−6 cm/sec | – |
| CC[C@H](C)[C@H](NC(=O)[C@H](CCC(N)=O)NC(=O)[C@@H](NC(=O)[C@H](Cc1c[nH]cn1)NC(=O)[C@@H](NC(C)=O)C(C)C)C(C)C)C(=O)N1CCC[C@H]1C(=O)N[C@@H](C)C(=O)N[C@@H](CC(=O)O)C(=O)N[C@@H](CC(C)C)C(=O)N[C@@H](Cc1c[nH]c2ccccc12)C(=O)N[C@@H](CCC(=O)O)C(=O)N[C@@H](Cc1c[nH]c2ccccc12)C(=O)N[C@H](C(=O)N[C@@H](CCCNC(=N)N)C(=O)N[C@@H](CCCNC(=N)N)C(N)=O)C(C)C [SEQ ID NO: 113] (Ac-VHVQIPADLWEWVRR-NH2) | < 50 | < 500 | 8.99 | – | – | 76.8 | -0.13 | -3.47 | – | higher permeability compared to Rhodamine B |
| CC[C@H](C)[C@H](NC(=O)[C@@H](NC(=O)[C@@H](NC(=O)[C@H](Cc1c[nH]cn1)NC(=O)[C@@H](NC(C)=O)C(C)C)C(C)C)[C@@H](C)O)C(=O)N1CCC[C@H]1C(=O)N[C@@H](C)C(=O)N[C@@H](CCC(=O)O)C(=O)N[C@@H](CC(C)C)C(=O)N[C@@H](Cc1c[nH]c2ccccc12)C(=O)N[C@@H](CCC(=O)O)C(=O)N[C@@H](Cc1c[nH]c2ccccc12)C(=O)N[C@H](C(=O)N[C@@H](CCCNC(=N)N)C(=O)N[C@@H](CCCNC(=N)N)C(N)=O)C(C)C [SEQ ID NO: 111] (Ac-VHVTIPAELWEWVRR-NH2) | < 50 | < 500 | 8.99 | – | – | 83.7 | -0.38 | -0.93 | – | higher permeability compared to Rhodamine B |
| CC[C@H](C)[C@H](NC(=O)[C@H](Cc1c[nH]c2ccccc12)NC(=O)[C@H](CCC(=O)O)NC(=O)[C@H](Cc1ccc(O)cc1)NC(=O)[C@H](CC(C)C)NC(=O)[C@H](CC(=O)O)NC(=O)[C@H](C)NC(=O)[C@@H]1CCCN1C(=O)[C@@H](NC(=O)[C@@H](NC(=O)[C@@H](NC(=O)[C@H](CCSC)NC(=O)[C@@H](NC(C)=O)C(C)C)C(C)C)[C@@H](C)O)[C@@H](C)CC)C(=O)N[C@@H](CCC(=O)O)C(=O)N[C@@H](CCC(=O)O)C(=O)N[C@@H](CCCNC(=N)N)C(=O)N[C@@H](CCCNC(=N)N)C(=O)N[C@@H](CCCNC(=N)N)C(=O)N[C@@H](CCCNC(=N)N)C(=O)N[C@@H](CCCNC(=N)N)C(=O)N[C@@H](CCCNC(=N)N)C(=O)N[C@@H](CCCNC(=N)N)C(=O)N[C@@H](CCCNC(=N)N)C(N)=O [SEQ ID NO: 30] (Ac-VMVTIPADLYEWIEERRRRRRRR-NH2) | ≥ 100 | < 1000 | 12.96 | – | – | – | – | -3.89 | – | – |

Continued, in another order:

| solubility [1] [µM] | IC50 [2] [nM] | IP (isoelectric point) [3] | logP ([3]; logP) | logD ([3]; pH 7.4, Log D (7.4)) | Papp [4] [×10⁻⁶ cm/s] | logP [3, 6] | logD [3, 7] | Structure (SMILES) | Permeability (Papp) [5] | permeability compared to high permeability standard Rhodamine B (in words) [5] |
| --- | --- | --- | --- | --- | --- | --- | --- | --- | --- | --- |
| ≥ 100 | < 1000 | 11.29 | – | – | – | – | -3.69 | CC[C@H](C)[C@H](NC(=O)[C@H](Cc1c[nH]c2ccccc12)NC(=O)[C@H](CCC(=O)O)NC(=O)[C@H](Cc1ccc(O)cc1)NC(=O)[C@H](CC(C)C)NC(=O)[C@H](CC(=O)O)NC(=O)[C@H](C)NC(=O)[C@@H]1CCCN1C(=O)[C@@H](NC(=O)[C@@H](NC(=O)[C@@H](NC(=O)[C@H](CCSC)NC(=O)[C@@H](NC(C)=O)C(C)C)C(C)C)[C@@H](C)O)[C@@H](C)CC)C(=O)N[C@@H](CCC(=O)O)C(=O)N[C@@H](CCC(=O)O)C(=O)N[C@@H](CCCNC(=N)N)C(=O)N[C@@H](CCCNC(=N)N)C(=O)N[C@@H](CCCNC(=N)N)C(N)=O [SEQ ID NO: 20] (Ac-VMVTIPADLYEWIEERRR-NH2) | – | – |
| > 10000 | < 400 | 5.14 | -0.37 | -3.65 | – | – | – | CC[C@H](C)[C@H](NC(C)=O)C(=O)N[C@@H](Cc1c[nH]cn1)C(=O)N[C@H](C(=O)N[C@H](C(=O)N[C@H](C(=O)N1CCC[C@H]1C(=O)N[C@@H](C)C(=O)N[C@@H](CC(=O)O)C(=O)N[C@@H](CC(C)C)C(=O)N[C@@H](Cc1ccc(O)cc1)C(=O)N[C@@H](CC(=O)O)C(=O)N[C@@H](Cc1c[nH]c2ccccc12)C(=O)N[C@H](C(=O)N[C@@H](CC(N)=O)C(=O)N[C@@H](CCCCN)C(N)=O)[C@@H](C)CC)[C@@H](C)CC)[C@@H](C)O)C(C)C [SEQ ID NO: 6] (Ac-IHVTIPADLYDWINK-NH2) | – | – |
| < 50 | < 500 | 8.99 | – | – | 68.8 | -5.94 | -3.91 | CC[C@H](C)[C@H](NC(=O)[C@@H](NC(=O)[C@@H](NC(=O)[C@H](Cc1c[nH]cn1)NC(=O)[C@@H](NC(C)=O)C(C)C)C(C)C)[C@@H](C)O)C(=O)N1CCC[C@H]1C(=O)N[C@@H](CCC(N)=O)C(=O)N[C@@H](CC(=O)O)C(=O)N[C@@H](CC(C)C)C(=O)N[C@@H](Cc1c[nH]c2ccccc12)C(=O)N[C@@H](CCC(=O)O)C(=O)N[C@@H](Cc1c[nH]c2ccccc12)C(=O)N[C@H](C(=O)N[C@@H](CCCNC(=N)N)C(=O)N[C@@H](CCCNC(=N)N)C(N)=O)C(C)C [SEQ ID NO: 115] (Ac-VHVTIPQDLWEWVRR-NH2) | – | higher permeability compared to Rhodamine B |
